Read-outs that look alike come from different tables or passages of the source.
How the values were obtained:
[1] = target: T1, Human recombinant SCP-2 (Homo sapiens, UniProt P22307); assay: NBDS displacement assay; format: binding; settings: for Max % Displacement: displacement of SCP-2 (500 nM)-bound NBDS (500 nM), 24°C, 10 mM phosphate buffer pH 7.4, n=4
T1 sequence (P22307 1-143 isoform P22307-2): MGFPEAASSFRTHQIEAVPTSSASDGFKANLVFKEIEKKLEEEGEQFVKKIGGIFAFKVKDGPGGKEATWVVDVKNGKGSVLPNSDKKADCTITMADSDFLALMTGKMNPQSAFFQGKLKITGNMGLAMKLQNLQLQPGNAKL

[2] = target: T1, Human recombinant SCP-2; assay: Reverse and forward titrations of NBDS with SCP-2; format: binding; settings: forward titration, SCP-2 500 nM, NBDS 0–1.8 μM
[3] = Ki = (Kd,NBDS × EC50)/[NBDS]total, NBDS 0.5 μM
[4] = Ki, Ki = (Kd,NBDS × EC50)/[NBDS]total, NBDS 0.5 μM

Structure (SMILES)	Ki [1, 3]	Max % Displacement [1]	further results
CCCCC/C=C\C/C=C\C/C=C\C/C=C\CCCC(=O)NCCO [Compound 1, N-arachidonoylethanolamine]	680 ± 50 nM	59.3 ± 1.2%	
CCCCC/C=C\C/C=C\C/C=C\C/C=C\CCCC(=O)NCC(=O)O [Compound 7, N-arachidonoyl glycine]	1220 ± 30 nM	82.0 ± 0.8%	
CCCCC/C=C\C/C=C\C/C=C\C/C=C\CCCC(N)=O [Compound 11, Arachidonoyl amide]	1800 ± 100 nM	71.1 ± 1.3%	
CCCCC/C=C\C/C=C\C/C=C\C/C=C\CCCC(=O)OCC(O)CO (stereo not shown) [Compound 3, 1-arachidonoyl glycerol]		57.7 ± 0.7%	EC50 [1]: 1870 ± 50 nM; Ki [1, 4]: 820 ± 20 nM
CCCCCCCC/C=C\CCCCCCCC(N)=O [Compound 12, Oleamide]		68.3 ± 1.7%	EC50 [1]: 13100 ± 2300 nM; Ki [1]: 5800 ± 1000 nM
CCCCC/C=C\C/C=C\C/C=C\C/C=C\CCCC(=O)NCCF [Compound 5, arachidonoyl-2’-fluoroethylamide]	2780 ± 210 nM	64.4 ± 2.2%	
CCCCC/C=C\C/C=C\C/C=C\C/C=C\CCCC(=O)OC(CO)CO [Compound 2, 2-arachidonoylglycerol]		55.1 ± 1.0%	EC50 [1]: 840 ± 40 nM; Ki [1, 4]: 370 ± 20 nM
CCCCC/C=C\C/C=C\C/C=C\C/C=C\CCCC(=O)NCCc1ccc(O)c(O)c1 [Compound 9, N-arachidonoyl dopamine]	1120 ± 20 nM	94.9 ± 0.1%	
CCCCC/C=C\C/C=C\C/C=C\C/C=C\CCCC(=O)Nc1ccc(O)cc1 [Compound 10, N-arachidonoyl-p-aminophenol]	1410 ± 30 nM	89.2 ± 0.8%	Max % Displacement ([1]; listed as AM404): 89%
CCCCC/C=C\C/C=C\C/C=C\C/C=C\CCCC(=O)NC(CO)CO [Compound 4, N-arachidonoyl serinol]	2950 ± 120 nM	69.2 ± 1.7%	fold reduction in potency compared to 2 ([1]; NBDS displacement, versus 2-AG (2)): 8 fold
CCCCC/C=C\C/C=C\C/C=C\C/C=C\CCCC(=O)NCCc1c[nH]c2ccc(O)cc12 [Compound 8, N-arachidonoyl serotonin]	1460 ± 20 nM	84.8 ± 0.8%	
CCCCCCC(CCCCCCCCCCC(=O)O)N(C)c1ccc([N+](=O)[O-])c2nonc12 (stereo not shown) [NBDS, 12-N-methyl-(7-nitrobenz-2-oxa-1,3-diazo)aminostearic acid]			Bmax [2]: 0.89 ± 0.04 binding sites per molecule of SCP-2
CC/C=C\C/C=C\C/C=C\C/C=C\C/C=C\C/C=C\CCC(=O)NCCO [Compound 13, docosahexaenoyl ethanolamide]	1910 ± 40 nM	73.9 ± 1.3%	
CCCCC/C=C\C/C=C\C/C=C\C/C=C\CCCC(=O)OCCN [Compound 6, O-arachidonoylethanolamine]	1600 ± 20 nM	94.7 ± 1.6%	
CC(=O)Nc1ccc(Nc2nc(-c3ccc(Cl)c(Cl)c3)cs2)cc1 [Compound 14]	1000 ± 100 nM	96.6 ± 0.7%	

Source: PMC6904209 (Methods in enzymology, 2017)
